US8153614B2, “Treatment of osteoarthritis” (Glycoscience Laboratories, Inc., priority 2006, dated 2012)

System: C57BL/6 mice, which spontaneously develop osteoarthritis
Assay: Macroscopic examination (India ink) of knee joint cartilage in the spontaneous osteoarthritis mouse model
Assay type: in vivo
Settings: oral HA4 100 mg/10 ml/kg once daily for 2 weeks
Procedure: In this example, HA4 was administered to C57BL/6 mice, which spontaneously develop osteoarthritis, to examine effects thereof.
20-week-old male C57BL/6 mice were purchased from Charles River Laboratories Japan, Inc., and animals which developed osteoarthritis were used. The animals were divided into the negative control (treated with physiological saline) group and the oral HA4 (100 mg/10 ml/kg) treated group.
In this example, 10 mg/ml HA4 was prepared. Specifically, HA4 was prepared by the method of Tawada et al. (Tawada A, Masa T, Oonuki Y, Watanabe A, Matsuzaki Y, Asari A. Large-scale preparation, purification, and characterization of hyaluronan oligosaccharides from 4-mers to 52-mers. Glycobiology. 2002; 12(7): 421-6.), and the concentration was adjusted with physiological saline. Furthermore, physiological saline was prepared as a control.
In this example, the test substance or physiological saline was orally given to mice which developed osteoarthritis using an oral sonde once daily for 2 weeks.
Osteoarthritis curing effects were determined macroscopically. […] For this evaluation method, refer to Chang D G, Iverson E P, Schinagl R M, Sonoda M, Amiel D, Coutts R D, Sah R L. Quantitation and localization of cartilage degeneration following the induction of osteoarthritis in the rabbit knee. […]

tetrasaccharide hyaluronan [HA4]
Therapeutic effects against osteoarthritis: therapeutic effects against osteoarthritis were confirmed
MEAN score (remaining India ink) (saline control mean 4.8): MEAN 1.4
